Our source for the Relative activity and Activity values is ChEMBL document CHEMBL1135214, “Meiosis activating sterols derived from diosgenin” (2002).

The structures appear in SMILES notation. Calls of active or inactive are those of the source. No cut-off for these calls is given here.

One assay is filed under the species Mus musculus. Put plainly: Tested for ability to induce meiosis in immature mouse oocytes by measuring the rate of germinal vesicle breakdown (GVB) relative to FF-MAS; na means Not active. It counts as functional.
On to `C[C@@H](CO)CCC[C@@H](C)[C@H]1CCC2C3CC=C4C[C@@H](O)CC[C@]4(C)C3CC[C@@]21C` (stereo partly drawn), for which the Relative activity entry was “inactive”.
On the same count and under the same terms, the result for `C[C@@H](CO)CCC[C@@H](C)[C@H]1CC=C2C3=C(CC[C@@]21C)[C@@]1(C)CC[C@H](O)C(C)(C)[C@@H]1CC3` reads “inactive”.

The species named for a further assay is Mus musculus. Put plainly: Tested for ability to induce meiosis in immature mouse oocytes by measuring the rate of germinal vesicle breakdown (GVB). The format is functional.
`CC(C)=CCC[C@@H](C)[C@H]1CC=C2C3=C(CC[C@@]21C)[C@@]1(C)CC[C@H](O)C(C)(C)[C@@H]1CC3`: the Activity is 100%.

A further assay is filed under the species Mus musculus. The assay can be described thus: Tested for ability to induce meiosis in immature mouse oocytes by measuring the rate of germinal vesicle breakdown (GVB) relative to FF-MAS. It counts as functional. On the set-up: concentration or dose not given beside the values.
For the compound `CC(C)CCC[C@@H](C)[C@H]1[C@@H](O)CC2C3CC=C4CCCC[C@]4(C)C3CC[C@@]21C` (stereo partly drawn), the Relative activity worked out at 87%.
Consider `CC(CO)CCC[C@@H](C)[C@H]1CC[C@H]2[C@@H]3CC=C4C(C)(C)[C@@H](O)CC[C@]4(C)[C@H]3CC[C@]12C` (single isomer, unassigned), for which the Relative activity stood at 71%.
As for `CC(C)CCC[C@@H](C)[C@H]1[C@@H](O)CC2C3CC=C4C(C)(C)[C@@H](O)CC[C@]4(C)C3CC[C@@]21C` (stereo partly drawn), the Relative activity was 113%.
Take `C=C(C)CCC[C@@H](C)[C@H]1CC=C2C3=C(CC[C@@]21C)[C@@]1(C)CC[C@H](O)C(C)(C)[C@@H]1CC3`: the Relative activity came out at 106%.
With `C[C@@H](CI)CCC[C@@H](C)[C@H]1CC=C2C3=C(CC[C@@]21C)[C@@]1(C)CC[C@H](O)C(C)(C)[C@@H]1CC3`, the Relative activity was determined as 85%.
On to `CC(C)CCC[C@@H](C)[C@H]1[C@@H](O[Si](C)(C)C(C)(C)C)CC2C3CC=C4C[C@@H](O)CC[C@]4(C)C3CC[C@@]21C` (stereo partly drawn), for which the Relative activity is on record as 43%.
On to `C[C@@H](CO)CCC[C@@H](C)[C@H]1CCC2C3=CC=C4C(C)(C)[C@@H](O)CC[C@]4(C)C3CC[C@@]21C` (stereo partly drawn), for which the Relative activity came to 89%.
For `C[C@@H](CCl)CCC[C@@H](C)[C@H]1CC=C2C3=C(CC[C@@]21C)[C@@]1(C)CC[C@H](O)C(C)(C)[C@@H]1CC3`, the Relative activity came out at 87%.
As to `CC(C)CCC[C@@H](C)[C@H]1[C@@H](O)CC2C3=CC=C4C(C)(C)[C@@H](O)CC[C@]4(C)C3CC[C@@]21C` (stereo partly drawn), the Relative activity was determined as 90%.
In the case of `C[C@H](CCCC(C)(C)Cl)[C@H]1CC=C2C3=C(CC[C@@]21C)[C@@]1(C)CC[C@H](O)C(C)(C)[C@@H]1CC3`, the Relative activity was found to be 62%.
